Results as given in patent US8778876B2, “Small-molecule inhibitors of Dengue and West Nile virus proteases” (The Board of Regents of the University of Texas System, priority 2011, dated 2014).
Entries after “also recorded” stand apart in the source; their conditions may differ. Read-outs that look alike come from different tables or passages of the source.

What was measured:
[1] = target: T1, Bovine pancreatic trypsin (Bos taurus, UniProt P00760); assay: biochemical; assay type: biochemical
T1 construct: purchased Sigma Aldrich; host or cells: bovine pancreas
T1 sequence (P00760 24-246): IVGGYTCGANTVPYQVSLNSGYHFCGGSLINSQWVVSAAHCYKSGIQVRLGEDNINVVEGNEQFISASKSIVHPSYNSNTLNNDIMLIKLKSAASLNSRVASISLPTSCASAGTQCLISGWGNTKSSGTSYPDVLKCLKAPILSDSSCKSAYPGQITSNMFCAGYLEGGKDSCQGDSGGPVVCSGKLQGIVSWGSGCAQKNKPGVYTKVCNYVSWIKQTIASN

DEN2V NS2B-NS3pro [2] = target: T2, DEN2V NS2B-NS3pro (Dengue virus type 2, UniProt Q91H74); assay: Preliminary DEN2V NS2B-NS3pro inhibition assay; assay type: biochemical, Dengue 2 virus; details: 100 nM protease, 100 μM Boc-GRR-AMC, 30 min at 25° C.; aprotinin at 100 μM
T2 sequence (Q91H74 entry or part of it, added parts left off): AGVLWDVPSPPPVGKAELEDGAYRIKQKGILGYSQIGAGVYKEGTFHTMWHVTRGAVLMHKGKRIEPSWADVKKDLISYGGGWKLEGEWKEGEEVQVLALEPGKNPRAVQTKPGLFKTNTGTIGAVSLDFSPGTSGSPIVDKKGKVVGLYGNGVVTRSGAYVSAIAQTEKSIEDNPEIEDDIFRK
T2 sequence (Q91H74 entry or part of it partner, added parts left off): as the sequence (Q91H74 entry or part of it, added parts left off) above

physchem = details: pH 9, aqueous with cosolvent or surfactant or cyclodextrin, kinetic from dmso stock
DENV; WNV protease = assay type: biochemical, Dengue virus; West Nile virus
DEN2V NS2B-NS3pro [3] = target: T2, DEN2V NS2B-NS3pro; assay: Steady-state kinetics of inhibitors of DEN2V NS2B-NS3pro (Boc-GRR-AMC substrate, Dynafit); assay type: biochemical, Dengue 2 virus
WNV NS2B-NS3pro = WNV NS2B-NS3pro (West Nile virus, UniProt P06935); assay: Steady-state kinetics of inhibitors of WNV NS2B-NS3pro; assay type: biochemical
WNV NS2B-NS3pro, sequence (P06935 1502-1679 limits assumed): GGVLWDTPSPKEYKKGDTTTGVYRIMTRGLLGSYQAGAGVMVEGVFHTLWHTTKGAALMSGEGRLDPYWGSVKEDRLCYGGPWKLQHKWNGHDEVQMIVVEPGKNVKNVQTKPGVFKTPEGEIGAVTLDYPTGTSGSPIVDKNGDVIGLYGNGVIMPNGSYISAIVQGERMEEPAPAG
WNV NS2B-NS3pro, sequence (P06935 1424-1463 partner limits assumed): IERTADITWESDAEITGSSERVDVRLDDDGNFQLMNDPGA

[4] = Ki1 (from biochemical protease inihibition experiments) West Nile virus NS2B-NS
[5] = Ki1 (from biochemical protease inihibition experiments) Dengue 2 virus NS2B-NS3

N=C(N)c1ccccc1 [Benzamidine, reference compound]
Mechanism (trypsin inhibition) [1]: competitive trypsin inhibitors

Nc1ccc(N)c2c1C(=O)c1c(N)ccc(N)c1C2=O [Compound 6A42]
Mechanism (trypsin inhibition) [1]: mixed noncompetitive trypsin inhibitors; also recorded: inhibited both the DEN2V NS2B-NS3 protease and trypsin | Ki ([1]; Ki1 trypsin): 60 ± 13 µM | Ki ([1]; Ki2 trypsin): 167 ± 20 µM | Inhibition of DEN2V NS2B-NS3pro in the preliminary inhibition assay (DEN2V NS2B-NS3pro [2]): significant inhibition

Nc1ccc(O)c2ccccc12 [Compound 6A51]
solubility (physchem): > 10 µM

O=C1c2ccc(O)cc2C(=O)c2c1ccc(O)c2O [Compound 6A47]
solubility (physchem): > 10 µM | Mechanism (trypsin inhibition) [1]: mixed noncompetitive trypsin inhibitors; also recorded: inhibited both the DEN2V NS2B-NS3 protease and trypsin | Ki ([1]; Ki1 trypsin): 4 µM | Ki ([1]; read-out: Ki2 trypsin): 25 ± 3 µM | Inhibition of DEN2V NS2B-NS3pro in the preliminary inhibition assay (DEN2V NS2B-NS3pro [2]): significant inhibition

Oc1ccc2cc(/N=N/c3ccc4c(c3)OCO4)c(O)cc2c1 [Compound 292]
Protease inhibited in Knock-down (DENV; WNV protease): WNV

Oc1ccc2c(/N=N/c3ccc4c(c3)OCO4)ccc(O)c2c1 [Compound 296]
Protease inhibited in Knock-down (DENV; WNV protease): DENV; WNV | Ki (DEN2V NS2B-NS3pro [3]; Denpro Ki1): 215 µM | Ki (DEN2V NS2B-NS3pro [3]; Denpro Ki2): 62 µM | Ki (WNV NS2B-NS3pro; WNpro Ki2): 116 µM

O=C1c2c(O)cccc2Cc2cccc(O)c21 [Compound 6A45]
solubility (physchem): > 10 µM | Mechanism (trypsin inhibition) [1]: competitive trypsin inhibitors; also recorded: inhibited both the DEN2V NS2B-NS3 protease and trypsin | Ki ([1]; Ki1 trypsin): 0.6 ± 0.07 µM | Inhibition of DEN2V NS2B-NS3pro in the preliminary inhibition assay (DEN2V NS2B-NS3pro [2]): significant inhibition | Ki (WNV NS2B-NS3pro; [4]): 2 µM

COc1ccc(N)c2c1C(=O)c1ccccc1C2=O [Compound 6A46]
solubility (physchem): > 10 µM

CN(C)c1ccc2nc3ccc(=O)cc-3sc2c1 [Compound 9A4]
Ki (DEN2V NS2B-NS3pro [3]; [5]): 359 µM | Ki (WNV NS2B-NS3pro; [4]): 431 µM

Nc1ccc2c(c1)C(=O)c1ccccc1C2=O [Compound 6A27]
solubility (physchem): < 10 µM

O=C(Nc1ccc(O)c2ccccc12)c1ccc([N+](=O)[O-])cc1[N+](=O)[O-] [Compound 273]
Protease inhibited in Knock-down (DENV; WNV protease): DENV; WNV | Ki (DEN2V NS2B-NS3pro [3]; Denpro Ki1): < 223 µM | Ki (WNV NS2B-NS3pro; WNpro Ki1): < 169 µM | Ki (WNV NS2B-NS3pro; WNpro Ki2): < 186 µM

O=C1c2cccc(O)c2C(=O)c2cccc(O)c21 [Compound 6A30]
solubility (physchem): < 10 µM

O=[N+]([O-])c1cc(/N=N/c2ccc3cc(O)c(O)cc3c2)ccc1O [Compound 293]
Protease inhibited in Knock-down (DENV; WNV protease): DENV | Ki (DEN2V NS2B-NS3pro [3]; Denpro Ki1): 432 µM | Ki (DEN2V NS2B-NS3pro [3]; Denpro Ki2): 29 µM | Ki (WNV NS2B-NS3pro; WNpro Ki2): 20 µM

CC(=O)Oc1cc2c(cc1OC(C)=O)[C@@H]1c3ccc(OC(C)=O)c(OC(C)=O)c3OC[C@]1(OC(C)=O)C2 [MS5, Haematoxylin pentaacetate]
Inhibition in single-point knock-down assays with either protease (DENV; WNV protease; compound incubated with cleavage buffer overnight (complete oxidation)): no observable inhibition | Mechanism (DEN2V NS2B-NS3pro [3]; Table 1, DEN2V NS2B-NS3pro, HTS-identified hits): Mixed | Ki (DEN2V NS2B-NS3pro [3]; Table 1, DEN2V NS2B-NS3pro, read-out: Ki1): 16 ± 7 µM | Ki (DEN2V NS2B-NS3pro [3]; Table 1, DEN2V NS2B-NS3pro, read-out: Ki2): 5 ± 0.7 µM | Mechanism (WNV NS2B-NS3pro; Table 2, WNV NS2B-NS3pro): Mixed

Cc1ccc(O)c(/N=N/c2c(O)cc(O)c3ccccc23)c1 [Compound 301]
Protease inhibited in Knock-down (DENV; WNV protease): DENV; WNV

O=[N+]([O-])c1ccc(/N=N/c2c(O)cc(O)c3ccccc23)c(O)c1 [Compound 302]
Protease inhibited in Knock-down (DENV; WNV protease): DENV; WNV

CCN(CC)c1ccc2nc3c4ccccc4c(=O)cc-3oc2c1 [Compound 9A6]
Ki (DEN2V NS2B-NS3pro [3]; [5]): 53 µM | Ki (WNV NS2B-NS3pro; [4]): 47 µM

O=[N+]([O-])c1ccc(OP(=O)([O-])Oc2ccc([N+](=O)[O-])cc2)cc1.[Na+] [Compound 6A24]
solubility (physchem): < 10 µM

O=[N+]([O-])c1ccc(/N=N/c2ccc(O)c3cc(O)ccc23)c([N+](=O)[O-])c1 [Compound 298]
Protease inhibited in Knock-down (DENV; WNV protease): DENV; WNV | Ki (DEN2V NS2B-NS3pro [3]; Denpro Ki1): 40 µM | Ki (DEN2V NS2B-NS3pro [3]; Denpro Ki2): 4 µM | Ki (WNV NS2B-NS3pro; WNpro Ki1): 4 µM | Ki (WNV NS2B-NS3pro; WNpro Ki2): 2 µM

Oc1cc2ccc(/N=N/c3ccc4c(c3)OCO4)cc2cc1O [Compound 290]
Protease inhibited in Knock-down (DENV; WNV protease): DENV; WNV | Ki (DEN2V NS2B-NS3pro [3]; Denpro Ki2): < 8.5 µM | Ki (WNV NS2B-NS3pro; WNpro Ki2): < 6 µM

O=c1ccc2[n+]([O-])c3ccc(O)cc3oc-2c1 [Compound 9A3]
Ki (DEN2V NS2B-NS3pro [3]; [5]): 82 µM | Ki (WNV NS2B-NS3pro; [4]): 72 µM
